Legend:
[1] = Inhibition of recombinant Plasmodium falciparum PKG using FAM-PKA peptide as fluorescent substrate preincubated for 15 mins followed by substrate addition measured after 1 hr by fluorescence polarization based IMAP assay
Plasmodium falciparum [2] = assay: Antimalarial activity against drug-sensitive Plasmodium falciparum 3D7 infected in human erythrocytes assessed as reduction in parasitemia incubated for 72 hrs by SYBR green I and Mitotracker deep red dye based flow cytometric analysis; type: functional, organism-based
Plasmodium falciparum [3] = assay: Antimalarial activity against Plasmodium falciparum expressing PKG T618Q mutant infected in human erythrocytes assessed as reduction in parasitemia incubated for 72 hrs by SYBR green I and Mitotracker deep red dye based flow cytometric analysis; type: functional, organism-based
Plasmodium berghei = assay: Antimalarial activity against Plasmodium berghei sporozoites expressing Luciferase infected in human HepG2 cells assessed as reduction in parasite growth incubated for 48 hrs by ONE-Glo luciferase assay; type: functional, organism-based
Homo sapiens = species: Homo sapiens; assay: Inhibition of human PKG using FAM-IP3R peptide as fluorescent substrate at 10 uM preincubated for 15 mins followed by substrate addition measured after 1 hr by fluorescence polarization based IMAP assay relative to control; conditions: time 75.0 min
[4] = Aqueous solubility of compound in PBS at pH 7.4 incubated for 90 mins by UV spectrophotometric analysis; type: physicochemical
[5] = Half life in CD-1 mouse liver microsomes in presence of NADPH incubated for 60 mins by LC-MS/MS analysis; type: ADME, Microsome
[6] = Intrinsic clearance in CD-1 mouse liver microsomes in presence of NADPH incubated for 60 mins by LC-MS/MS analysis; type: ADME, Microsome; conditions: read-out: CLH
[7] = Stability in CD-1 mouse liver microsomes assessed as remaining compound in absence of NADPH incubated for 60 mins by LC-MS/MS analysis; type: ADME, Microsome; conditions: read-out: Stability
[8] = Half life in human liver microsomes in presence of NADPH incubated for 60 mins by LC-MS/MS analysis; type: ADME, Microsome
[9] = Intrinsic clearance in human liver microsomes in presence of NADPH incubated for 60 mins by LC-MS/MS analysis; type: ADME, Microsome; conditions: read-out: CLH
[10] = Stability in human liver microsomes assessed as remaining compound in absence of NADPH incubated for 60 mins by LC-MS/MS analysis; type: ADME, Microsome; conditions: read-out: Stability
[11] = Protein binding in C57BL/6 mouse plasma assessed as unbound fraction incubated for 22 hrs by LC-MS/MS analysis; type: ADME, cell-free
[12] = Protein binding in CD-1 mouse liver microsomes assessed as unbound fraction incubated for 17 hrs by LC-MS analysis; type: ADME, Microsome
Cytochrome P450 3A4 = Cytochrome P450 3A4 (Homo sapiens, UniProt P08684); assay: Inhibition of human CYP3A4 expressed in baculovirus infected insect cells using midazolam as substrate incubated for 30 mins in presence of NADPH by UPLC-MS analysis; type: ADME
Cytochrome P450 3A4, sequence (P08684 whole entry): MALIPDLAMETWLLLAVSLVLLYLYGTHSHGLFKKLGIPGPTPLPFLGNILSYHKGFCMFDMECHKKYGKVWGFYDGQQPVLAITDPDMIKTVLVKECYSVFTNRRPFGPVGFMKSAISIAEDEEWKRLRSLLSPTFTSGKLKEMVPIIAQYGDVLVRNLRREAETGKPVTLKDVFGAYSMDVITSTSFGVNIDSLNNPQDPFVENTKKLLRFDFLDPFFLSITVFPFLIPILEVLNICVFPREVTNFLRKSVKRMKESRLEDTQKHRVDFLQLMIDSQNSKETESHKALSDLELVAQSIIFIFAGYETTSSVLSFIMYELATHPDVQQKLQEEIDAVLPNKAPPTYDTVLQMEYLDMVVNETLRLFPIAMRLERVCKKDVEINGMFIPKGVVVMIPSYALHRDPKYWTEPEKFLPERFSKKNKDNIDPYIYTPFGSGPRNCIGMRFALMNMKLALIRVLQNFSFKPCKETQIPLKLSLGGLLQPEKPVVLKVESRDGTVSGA

Cytochrome P450 2D6 = Cytochrome P450 2D6 (Homo sapiens, UniProt P10635); assay: Inhibition of human CYP2D6 expressed in baculovirus infected insect cells using AMMC as substrate incubated for 40 mins in presence of NADPH by UPLC-MS analysis; type: ADME
Cytochrome P450 2D6, sequence (P10635 whole entry): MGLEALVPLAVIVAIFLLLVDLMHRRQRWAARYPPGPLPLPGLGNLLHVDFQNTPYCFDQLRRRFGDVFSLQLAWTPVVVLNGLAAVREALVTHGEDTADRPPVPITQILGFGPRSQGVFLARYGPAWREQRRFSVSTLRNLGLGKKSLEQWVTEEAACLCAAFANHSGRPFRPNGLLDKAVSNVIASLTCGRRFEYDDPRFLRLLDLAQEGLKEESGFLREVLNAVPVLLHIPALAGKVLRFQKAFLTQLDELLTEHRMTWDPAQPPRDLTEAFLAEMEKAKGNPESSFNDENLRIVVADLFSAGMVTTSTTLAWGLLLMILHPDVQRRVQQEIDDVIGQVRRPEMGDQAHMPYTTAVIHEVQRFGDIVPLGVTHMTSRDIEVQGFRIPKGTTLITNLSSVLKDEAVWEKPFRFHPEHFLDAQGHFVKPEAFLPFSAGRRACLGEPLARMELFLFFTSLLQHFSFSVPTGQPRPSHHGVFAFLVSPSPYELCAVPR

Cytochrome P450 2C9 = Cytochrome P450 2C9 (Homo sapiens, UniProt P11712); assay: Inhibition of human CYP2C9 expressed in baculovirus infected insect cells using MFC as substrate incubated for 30 mins in presence of NADPH by UPLC-MS analysis; type: ADME
Cytochrome P450 2C9, sequence (P11712 whole entry): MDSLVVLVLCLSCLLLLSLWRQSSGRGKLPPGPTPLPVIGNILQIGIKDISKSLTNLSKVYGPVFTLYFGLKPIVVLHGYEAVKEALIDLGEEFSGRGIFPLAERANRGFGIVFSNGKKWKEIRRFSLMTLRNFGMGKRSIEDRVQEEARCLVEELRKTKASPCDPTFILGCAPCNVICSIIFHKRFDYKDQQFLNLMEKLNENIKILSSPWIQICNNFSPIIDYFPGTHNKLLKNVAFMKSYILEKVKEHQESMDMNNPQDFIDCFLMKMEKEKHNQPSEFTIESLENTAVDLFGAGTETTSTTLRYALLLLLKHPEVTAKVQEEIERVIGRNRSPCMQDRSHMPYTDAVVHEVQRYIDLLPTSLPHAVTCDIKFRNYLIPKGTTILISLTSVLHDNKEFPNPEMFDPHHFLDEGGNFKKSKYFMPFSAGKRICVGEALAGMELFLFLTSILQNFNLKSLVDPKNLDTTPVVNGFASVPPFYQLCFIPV

[13] = target: Voltage-gated inwardly rectifying potassium channel KCNH2 (Homo sapiens, UniProt Q12809); assay: Inhibition of hERG expressed in HEK293 cells incubated for 30 mins by FluxOR dye based fluorescence analysis; type: toxicity, cell-based
Voltage-gated inwardly rectifying potassium channel KCNH2, sequence (Q12809 whole entry): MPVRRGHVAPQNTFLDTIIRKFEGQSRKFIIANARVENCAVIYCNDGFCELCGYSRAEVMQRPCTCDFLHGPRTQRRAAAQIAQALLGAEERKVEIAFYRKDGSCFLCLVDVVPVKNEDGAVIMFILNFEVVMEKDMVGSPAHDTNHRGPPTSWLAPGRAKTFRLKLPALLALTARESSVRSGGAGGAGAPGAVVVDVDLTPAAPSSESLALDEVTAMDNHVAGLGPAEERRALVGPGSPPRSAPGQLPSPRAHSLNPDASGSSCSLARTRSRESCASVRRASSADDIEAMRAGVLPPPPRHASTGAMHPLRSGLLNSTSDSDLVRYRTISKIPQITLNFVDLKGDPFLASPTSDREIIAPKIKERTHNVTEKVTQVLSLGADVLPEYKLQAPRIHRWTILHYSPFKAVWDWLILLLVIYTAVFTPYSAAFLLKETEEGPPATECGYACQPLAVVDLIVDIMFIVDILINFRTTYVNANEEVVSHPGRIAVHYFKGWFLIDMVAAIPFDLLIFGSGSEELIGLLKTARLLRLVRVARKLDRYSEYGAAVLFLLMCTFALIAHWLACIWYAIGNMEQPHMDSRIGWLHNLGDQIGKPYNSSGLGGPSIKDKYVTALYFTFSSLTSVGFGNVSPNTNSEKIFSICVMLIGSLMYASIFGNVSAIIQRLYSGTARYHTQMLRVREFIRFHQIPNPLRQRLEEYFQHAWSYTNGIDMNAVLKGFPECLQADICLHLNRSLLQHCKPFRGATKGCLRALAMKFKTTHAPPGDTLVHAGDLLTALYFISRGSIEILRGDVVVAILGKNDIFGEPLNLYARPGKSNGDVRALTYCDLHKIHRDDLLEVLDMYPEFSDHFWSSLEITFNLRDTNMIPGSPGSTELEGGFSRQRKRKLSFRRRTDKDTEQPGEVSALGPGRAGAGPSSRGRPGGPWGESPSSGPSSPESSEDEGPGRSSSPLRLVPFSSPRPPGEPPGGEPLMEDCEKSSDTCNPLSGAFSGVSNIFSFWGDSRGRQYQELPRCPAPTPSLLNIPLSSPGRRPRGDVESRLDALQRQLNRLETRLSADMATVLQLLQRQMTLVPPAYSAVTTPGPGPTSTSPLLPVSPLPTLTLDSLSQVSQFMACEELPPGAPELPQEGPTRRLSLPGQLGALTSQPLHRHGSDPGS

[14] = Apparent permeability in human Caco-2 cells incubated for 120 mins by LC-MS/MS analysis; type: ADME, cell-based
[15] = Efflux ratio of apparent permeability from basolateral to apical side over apical to basolateral side in human Caco-2 cells incubated for 120 mins by LC-MS/MS analysis; type: ADME, cell-based
[16] = Plasmodium falciparum, 3D7, 72 h
[17] = Plasmodium berghei, HepG2, 48 h

## C[C@H]1CN(C)CC[C@@H]1c1cc(-c2ccncc2)c(-c2ccc(F)cc2)[nH]1.Cl.Cl
[1]
  IC50: 14 nM
  pIC50: 7.87
Plasmodium falciparum [2]; [16]
  EC50: 80 nM
Plasmodium falciparum [3]; Plasmodium falciparum, 72 h
  EC50: 780 nM
Plasmodium berghei; [17]
  EC50: 170 nM
Homo sapiens
  inhibition: 30%
[4]
  solubility at 1.5 h: 187 µM
[5]
  half-life: > 60 min
[6]
  microsomal CLint: < 23 µL/min/mg
[7]
  remaining at 1 h: 99%
[8]
  half-life: > 60 min
[9]
  microsomal CLint: < 23 µL/min/mg
[10]
  remaining at 1 h: 100%
[11]
  fraction unbound at 22 h: 0.122
[12]
  fraction unbound at 17 h: 0.63
Cytochrome P450 3A4
  IC50: 4.78 µM
Cytochrome P450 2D6
  IC50: 6.15 µM
Cytochrome P450 2C9
  IC50: > 10 µM
[13]
  IC50: > 10 µM
[14]
  Papp at 2 h: 22.6 ×10⁻⁶ cm/s
[15]
  efflux ratio at 2 h: 1.52

## C[C@@H]1CN(C)CCC1c1cc(-c2ccncc2)c(-c2ccc(F)cc2)[nH]1.Cl.Cl (single isomer, unassigned)
[1]
  IC50: 9 nM
  pIC50: 8.05
Plasmodium falciparum [2]
  EC50: 50 nM
Plasmodium falciparum [3]
  EC50: 1220 nM
Plasmodium berghei
  EC50: 60 nM
Homo sapiens
  inhibition: 45%
[4]
  solubility at 1.5 h: 176 µM
[5]
  half-life: 31.2 min
[6]
  microsomal CLint: 44.5 µL/min/mg
[7]
  remaining at 1 h: 103%
[8]
  half-life: > 60 min
[9]
  microsomal CLint: < 23 µL/min/mg
[10]
  remaining at 1 h: 98%
[11]
  fraction unbound at 22 h: 0.119
[12]
  fraction unbound at 17 h: 0.518
Cytochrome P450 3A4
  IC50: 7.48 µM
Cytochrome P450 2D6
  IC50: 5.74 µM
Cytochrome P450 2C9
  IC50: > 10 µM
[13]
  IC50: > 10 µM
[14]
  Papp at 2 h: 22.1 ×10⁻⁶ cm/s
[15]
  efflux ratio at 2 h: 1.59

## C[C@@H]1CN(C)CC[C@@H]1c1cc(-c2ccncc2)c(-c2ccc(F)cc2)[nH]1.Cl.Cl
[1]
  IC50: 13 nM
  pIC50: 7.89
Plasmodium falciparum [2]; [16]
  EC50: 50 nM
Plasmodium falciparum [3]; Plasmodium falciparum, 72 h
  EC50: 760 nM
Plasmodium berghei; [17]
  EC50: 70 nM
Homo sapiens
  inhibition: -0.3%
[4]
  solubility at 1.5 h: 181 µM
[5]
  half-life: > 60 min
[6]
  microsomal CLint: < 23 µL/min/mg
[7]
  remaining at 1 h: 103%
[8]
  half-life: 35.7 min
[9]
  microsomal CLint: 38.8 µL/min/mg
[10]
  remaining at 1 h: 99%
[11]
  fraction unbound at 22 h: 0.155
[12]
  fraction unbound at 17 h: 0.502
Cytochrome P450 3A4
  IC50: > 10 µM
Cytochrome P450 2D6
  IC50: > 10 µM
Cytochrome P450 2C9
  IC50: > 10 µM
[13]
  IC50: > 10 µM
[14]
  Papp at 2 h: 20.1 ×10⁻⁶ cm/s
[15]
  efflux ratio at 2 h: 1

## CC1CN(C)CC[C@H]1c1cc(-c2ccncc2)c(-c2ccc(F)cc2)[nH]1.Cl.Cl (single isomer, unassigned)
[1]
  IC50: 14 nM
  pIC50: 7.85
Plasmodium falciparum [2]
  EC50: 170 nM
Plasmodium falciparum [3]
  EC50: 900 nM
Plasmodium berghei
  EC50: 350 nM
Homo sapiens
  inhibition: 0.4%
[4]
  solubility at 1.5 h: 190 µM
[5]
  half-life: 28.2 min
[6]
  microsomal CLint: 49.2 µL/min/mg
[7]
  remaining at 1 h: 104%
[8]
  half-life: 57.5 min
[9]
  microsomal CLint: 24.1 µL/min/mg
[10]
  remaining at 1 h: 101%
[11]
  fraction unbound at 22 h: 0.115
[12]
  fraction unbound at 17 h: 0.587
Cytochrome P450 3A4
  IC50: > 10 µM
Cytochrome P450 2D6
  IC50: 5.67 µM
Cytochrome P450 2C9
  IC50: > 10 µM
[13]
  IC50: > 10 µM
[14]
  Papp at 2 h: 17 ×10⁻⁶ cm/s
[15]
  efflux ratio at 2 h: 1.27

## CC(O)c1cc(-c2cc(C3CCN(C)CC3)[nH]c2-c2ccc(F)cc2)ccn1.Cl.Cl (configuration not stated)
[1]
  IC50: 10500 nM
  pIC50: 4.98
Plasmodium falciparum [2]; [16]
  EC50: 3350 nM
Plasmodium falciparum [3]; Plasmodium falciparum, 72 h
  EC50: 8320 nM
Plasmodium berghei; [17]
  EC50: > 10000 nM
Homo sapiens
  inhibition: 0.5%

## CN1CCC(c2cc(-c3ccncc3CO)c(-c3ccc(F)cc3)[nH]2)CC1.Cl.Cl
[1]
  IC50: 1520 nM
  pIC50: 5.82
Plasmodium falciparum [2]; [16]
  EC50: 481 nM
Plasmodium falciparum [3]; Plasmodium falciparum, 72 h
  EC50: 6230 nM
Plasmodium berghei; [17]
  EC50: 2400 nM
Homo sapiens
  inhibition: 1%

## CN1CCC(c2cc(-c3ccncc3Cl)c(-c3ccc(F)cc3)[nH]2)CC1.Cl.Cl
[1]
  IC50: 152 nM
  pIC50: 7.47
Plasmodium falciparum [2]; [16]
  EC50: 460 nM
Plasmodium falciparum [3]; Plasmodium falciparum, 72 h
  EC50: 3950 nM
Plasmodium berghei; [17]
  EC50: 1440 nM
Homo sapiens
  inhibition: 12%

Source: ChEMBL document CHEMBL5528065, “Structure-Activity Relationship of a Pyrrole Based Series of PfPKG Inhibitors as Anti-Malarials” (J Med Chem, 2024)
